Assay results published in PMC7287671, “Anticancer Ruthenium Complexes with HDAC Isoform Selectivity” (Molecules, 2020).

Legend:
[1] = test system: MCF7 human breast adenocarcinoma cell line; experiment: Cell viability assay (ChemoMetec Via1-Cassette); type: cell-based; conditions: MCF7, 96 h, triplicate
Procedure: viable cells. The experiments were carried out in triplicate.

[2] = target: T1, HDAC6 (Homo sapiens, UniProt Q9UBN7); experiment: HDAC6 fluorimetric enzyme inhibition assay (BPS Bioscience kit); type: biochemical; conditions: for Percentage HDAC6 activity: activity relative to control with no added inhibitor
T1 construct: GST; purchased BPS Bioscience
T1 sequence (Q9UBN7 1-1215): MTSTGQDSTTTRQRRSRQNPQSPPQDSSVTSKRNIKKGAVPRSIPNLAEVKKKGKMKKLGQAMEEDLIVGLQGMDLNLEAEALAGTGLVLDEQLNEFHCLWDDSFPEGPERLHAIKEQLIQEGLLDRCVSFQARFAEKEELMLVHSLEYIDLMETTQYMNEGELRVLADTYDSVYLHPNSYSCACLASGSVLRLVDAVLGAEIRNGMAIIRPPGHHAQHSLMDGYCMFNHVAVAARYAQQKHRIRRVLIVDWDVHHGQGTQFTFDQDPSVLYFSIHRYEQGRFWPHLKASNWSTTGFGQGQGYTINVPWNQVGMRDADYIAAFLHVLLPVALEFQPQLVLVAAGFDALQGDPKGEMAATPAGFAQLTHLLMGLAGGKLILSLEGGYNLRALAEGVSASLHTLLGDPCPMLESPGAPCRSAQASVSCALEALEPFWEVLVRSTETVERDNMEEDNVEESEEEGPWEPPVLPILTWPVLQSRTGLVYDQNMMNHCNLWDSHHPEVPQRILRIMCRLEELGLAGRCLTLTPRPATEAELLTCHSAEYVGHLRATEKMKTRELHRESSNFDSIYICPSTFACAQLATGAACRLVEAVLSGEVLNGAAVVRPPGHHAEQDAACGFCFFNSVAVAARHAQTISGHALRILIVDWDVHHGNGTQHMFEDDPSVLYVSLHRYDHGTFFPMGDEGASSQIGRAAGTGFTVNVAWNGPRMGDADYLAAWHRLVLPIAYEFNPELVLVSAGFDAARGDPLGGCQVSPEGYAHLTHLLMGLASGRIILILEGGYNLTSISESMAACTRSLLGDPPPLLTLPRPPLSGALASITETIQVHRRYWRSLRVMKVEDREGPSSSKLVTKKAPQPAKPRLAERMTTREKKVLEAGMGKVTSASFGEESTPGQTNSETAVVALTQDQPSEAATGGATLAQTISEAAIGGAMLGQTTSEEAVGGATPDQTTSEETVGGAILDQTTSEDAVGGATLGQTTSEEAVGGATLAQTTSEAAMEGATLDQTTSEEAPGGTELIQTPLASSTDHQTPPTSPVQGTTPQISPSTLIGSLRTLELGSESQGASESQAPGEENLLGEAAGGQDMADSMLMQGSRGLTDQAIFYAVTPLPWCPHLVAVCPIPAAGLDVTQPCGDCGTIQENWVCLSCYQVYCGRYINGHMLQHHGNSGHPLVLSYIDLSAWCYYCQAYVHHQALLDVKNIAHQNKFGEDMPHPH
Procedure: (§1) These isoforms were chosen as they provide contrasting binding topographies, and HDAC6 in particular is closely linked with cancer metastasis (Figure 2).
(§2) 5. Enzyme Inhibition Assay
(§3) HDAC enzyme inhibition assays were carried out for as stated using commercially available assay kits (BPS Bioscience ) and undertaken in a 96 well plate. All measurements were carried out in triplicate and standard deviation errors are included in the plots. Human recombinant enzymes HDAC1 FLAG-tag His-tag and HDAC6 GST-tag were used. Potential inhibitors were dosed at the required concentration […]
(§4) NaCl, 2.7 mM KCl, 1 mM MgCl 2). A master mixture was made using assay buffer, acetylated substrate specific to HDAC enzyme (200 µM) and BSA (1 mg/mL) in a ratio of buffer:substrate:BSA (6:1:1) and 40 µL added to each well plate. Buffer (10 µL) was added to all blank wells and inhibitor (5 µL) was added to all potential inhibitor wells. HDAC enzymes were diluted based on their stated activity and 5 µL was added to all wells except blanks and the plate incubated at 37 °C for 30 min. Developer was added and the mixture incubated at room temperature for a further 15 min. Fluorescence was measured […]
(§5) Percentage HDAC activity is […]
(§6) determined by quantification of fluorescence relative to control, with no added inhibitor.
(§7) IC 50 values are calculated using least squares regression fitting to equation S2, where Y = calculated HDAC activity at given concentration, X = concentration of inhibitor, a = gradient scaling factor and SP = saturation point (i.e. 100% activity). Errors calculated using the formula for standard […]
(§8) Y = ୣ୶୮ (௔×(௑ିூ ఱబ)) × SP (S2)
(§9) All assays carried out in […]

[3] = target: T2, HDAC1 (Homo sapiens, UniProt Q13547); experiment: HDAC1 fluorimetric enzyme inhibition assay (BPS Bioscience kit); type: biochemical; conditions: for Percentage HDAC1 activity: activity relative to control with no added inhibitor
T2 construct: FLAG; His; purchased BPS Bioscience
T2 sequence (Q13547 whole entry): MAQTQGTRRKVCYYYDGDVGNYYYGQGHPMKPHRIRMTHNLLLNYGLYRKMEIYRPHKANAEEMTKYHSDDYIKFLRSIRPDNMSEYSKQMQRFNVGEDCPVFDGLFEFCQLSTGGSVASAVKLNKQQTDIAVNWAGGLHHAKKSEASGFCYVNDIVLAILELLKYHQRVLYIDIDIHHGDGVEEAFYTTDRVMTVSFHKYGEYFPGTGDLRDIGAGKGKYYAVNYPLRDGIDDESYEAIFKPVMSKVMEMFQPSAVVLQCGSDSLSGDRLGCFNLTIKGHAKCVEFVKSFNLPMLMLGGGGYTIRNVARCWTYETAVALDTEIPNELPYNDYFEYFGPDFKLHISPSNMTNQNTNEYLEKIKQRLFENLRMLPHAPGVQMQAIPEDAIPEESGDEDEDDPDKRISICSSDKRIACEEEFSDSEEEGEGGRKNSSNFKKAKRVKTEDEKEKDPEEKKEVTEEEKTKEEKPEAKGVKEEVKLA
Procedure: as §1, §2, §3, §4, §5, §6, §7, §8, §9

EC50 [1] [nM] | IC50 ([2]; human recombinant HDAC6 GST-tag, triplicate) [nM] | Selectivity Factor ([2]; ratio of the IC50 values for HDAC1 and HDAC6) | IC50 ([3]; human recombinant HDAC1 FLAG-tag His-tag, triplicate) [nM] | Compound | Percentage HDAC6 activity ([2]; 0.1 uM inhibitor) [%] | Percentage HDAC6 activity ([2]; 1 uM inhibitor) [%] | Percentage HDAC1 activity ([3]; 0.1 uM inhibitor) [%] | Percentage HDAC1 activity ([3]; 1 uM inhibitor) [%]
3000 ± 600 | 41 ± 2 | 2.6 | 105 ± 15 | O=C(CCCCCCC(=O)Nc1cc2cccnc2c2ncccc12)NO [L^1] | 17 ± 3 | 1.5 ± 1 | 44 ± 7 | 6 ± 13
– | – | – | – | O=C(CCCCCCC(=O)Nc1ccccc1)NO [SAHA, suberanilohydroxamic acid, reference compound] | 22 ± 1 | 4 ± 2 | 70 ± 15 | 12 ± 7
